Results: ChEMBL document CHEMBL1201862, “PubChem BioAssay data set” (2004)
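These data come from cells grown in 96-well plates and exposed to compound for 48 hours at five concentrations. The concentration for 50% growth inhibition is given as GI50.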 Calls of active or inactive are those of the source. Rule as the data show it: active = GI50 up to about 1.1 µM and inactive = higher. Starred links: 1 amine or outer side, 2 acyl side, 3 side chain; linkers in the order of their positions; H or OH if unused. Positions of bridges follow the written chain, without caps; N, C: chain ends. Non-standard residues stand in square brackets, D forms with d. Residues, ends and D or L forms follow the SMILES beside them. ξ: configuration not given here. X37 = CC[C@H](C)[C@@H](N[*:1])[C@@H](O)CC(=O)O[C@H](C(=O)[C@H](C)C(=O)[*:2])C(C)C; NMeY = CN[C@@H](Cc1ccc(O)cc1)C(=O)O; dNMeL = CN[C@H](CC(C)C)C(=O)O; ξΔPro = O=C(O)C1C=CCN1

Legend:
Experiment in all cases: growth of human tumour cells (NCI), 48 h
NCI-H23 = tested on: NCI-H23
HCT-15 = tested on: HCT-15
SK-MEL-2 = tested on: SK-MEL-2
SK-MEL-28 = tested on: SK-MEL-28
PC-3 = tested on: PC-3
IGROV-1 = tested on: IGROV-1
RPMI-8226 = tested on: RPMI-8226
SK-MEL-5 = tested on: SK-MEL-5
U-251 = tested on: U-251
K562 = tested on: K562
MOLT-4 = tested on: MOLT-4
SF-295 = tested on: SF-295
MDA-MB-231 = tested on: MDA-MB-231
SNB-19 = tested on: SNB-19
NCI-H522 = tested on: NCI-H522
MDA-MB-435 = tested on: MDA-MB-435
Malme-3M = tested on: Malme-3M
OVCAR-8 = tested on: OVCAR-8
HCT-116 = tested on: HCT-116
HT-29 = tested on: HT-29

SMILES | GI50 (NCI-H23) | GI50 (HCT-15) [µM] | GI50 (SK-MEL-2) | GI50 (SK-MEL-28) | GI50 (PC-3) | GI50 (IGROV-1) | GI50 (RPMI-8226) | GI50 (SK-MEL-5) | GI50 (U-251) | GI50 (K562) | GI50 (MOLT-4) | GI50 (SF-295) | GI50 (MDA-MB-231) | GI50 (SNB-19) | GI50 (NCI-H522) | GI50 (MDA-MB-435) | GI50 (Malme-3M) | GI50 (OVCAR-8) | GI50 (HCT-116) | GI50 (HT-29)
CC[C@H](C)[C@H]1NC(=O)[C@@H](NC(=O)[C@@H](CC(C)C)N(C)C(=O)C2C=CCN2)[C@@H](C)OC(=O)[C@H](Cc2ccc(OC)cc2)N(C)C(=O)[C@@H]2CCCN2C(=O)[C@H](CC(C)C)NC(=O)[C@@H](C)C(=O)[C@H](C(C)C)OC(=O)C[C@@H]1O (stereo not given in full) (H-[ξΔPro][dNMeL]T[X37]LP[NMeY](Me); ester 3-C) | < 0.005 µM (active) | 0.0162 | < 0.005 µM (active) | < 0.005 µM (active) | < 0.005 µM (active) | < 0.005 µM (active) | < 0.005 µM (active) | < 0.005 µM (active) | < 0.005 µM (active) | < 0.005 µM (active) | < 0.005 µM (active) | < 0.005 µM (active) | < 0.005 µM (active) | < 0.005 µM (active) | < 0.005 µM (active) | < 0.005 µM (active) | < 0.005 µM (active) | < 0.005 µM (active) | < 0.005 µM (active) | < 0.005 µM (active)
Cc1cc(/N=N/c2c(O)ccc3ccccc23)ccc1/N=N/c1cccc([N+](C)(C)C)c1 | 13.3 µM (inactive) | 31 | 7.83 µM (inactive) | 16 µM (inactive) | 6.81 µM (inactive) | 2.87 µM (inactive) | 4.22 µM (inactive) | 2.86 µM (inactive) | 1.58 µM (inactive) | 13.2 µM (inactive) | 10.8 µM (inactive) | 20.6 µM (inactive) | 8.57 µM (inactive) | 3.71 µM (inactive) | 3.98 µM (inactive) | 6.25 µM (inactive) | 9.64 µM (inactive) | 10.1 µM (inactive) | 9.82 µM (inactive) | 3.66 µM (inactive)
CC(=O)N(CN1C(=O)CCC1C(=O)O)c1ccc(C)cc1 (stereo not given) | > 100 µM (inactive) | > 100 | > 100 µM (inactive) | > 100 µM (inactive) | > 100 µM (inactive) | > 100 µM (inactive) | > 100 µM (inactive) | > 100 µM (inactive) | > 100 µM (inactive) | > 100 µM (inactive) | > 100 µM (inactive) | > 100 µM (inactive) | > 100 µM (inactive) | > 100 µM (inactive) | > 100 µM (inactive) | > 100 µM (inactive) | > 100 µM (inactive) | > 100 µM (inactive) | > 100 µM (inactive) | > 100 µM (inactive)
COc1ccc(/C=C/C(=O)/C=C/c2ccc(OC)cc2)cc1 | > 100 µM (inactive) | 47.8 | 33.3 µM (inactive) | > 100 µM (inactive) | 69.3 µM (inactive) | 45.6 µM (inactive) | 5.01 µM (inactive) | 31.3 µM (inactive) | 23.7 µM (inactive) | 31.6 µM (inactive) | 51.1 µM (inactive) | > 100 µM (inactive) | 89.1 µM (inactive) | > 100 µM (inactive) | 42.8 µM (inactive) | 14.6 µM (inactive) | > 100 µM (inactive) | 17.6 µM (inactive) | 11.2 µM (inactive) | 29.3 µM (inactive)
COc1cccc(N2C(=O)C3c4[nH]c5ccccc5c4C4c5ccccc5CCC4C3C2=O)c1 (stereo not given) | > 10 µM (inactive) | > 10 | > 10 µM (inactive) | > 9.55 µM (inactive) | > 6.7 µM (inactive) | > 7.98 µM (inactive) | > 10 µM (inactive) | > 8.81 µM (inactive) | 3.82 µM (inactive) | > 10 µM (inactive) | > 10 µM (inactive) | > 10 µM (inactive) | 5.06 µM (inactive) | 3.31 µM (inactive) | > 10 µM (inactive) | > 7.5 µM (inactive) | 3.75 µM (inactive) | 2.34 µM (inactive) | 4.34 µM (inactive) | 9.93 µM (inactive)
O=C1CC(c2ccccc2)C2(C(=O)NC(=S)NC2=O)C(c2ccccc2)C1 (stereo not given) | > 75 µM (inactive) | > 75 | > 75 µM (inactive) | > 75 µM (inactive) | > 75 µM (inactive) | > 75 µM (inactive) | 38.7 µM (inactive) | > 75 µM (inactive) | > 75 µM (inactive) | > 75 µM (inactive) | 27.3 µM (inactive) | > 75 µM (inactive) | > 75 µM (inactive) | > 75 µM (inactive) | > 75 µM (inactive) | 55.8 µM (inactive) | > 75 µM (inactive) | > 75 µM (inactive) | > 75 µM (inactive) | > 75 µM (inactive)
CC1(C)OC2COC(c3n[nH]c4c(=O)[nH]c(=O)[nH]c34)C2O1 (stereo not given) | > 100 µM (inactive) | > 100 | > 100 µM (inactive) | > 100 µM (inactive) | > 100 µM (inactive) | > 100 µM (inactive) | > 100 µM (inactive) | > 100 µM (inactive) | > 100 µM (inactive) | > 100 µM (inactive) | > 100 µM (inactive) | > 100 µM (inactive) | > 100 µM (inactive) | > 100 µM (inactive) | > 100 µM (inactive) | > 100 µM (inactive) | > 100 µM (inactive) | > 100 µM (inactive) | > 100 µM (inactive) | > 100 µM (inactive)
O=C(Cn1ccc(=O)[nH]c1=O)Nc1ccc(C(=O)O)c(O)c1 | > 100 µM (inactive) | > 100 | > 100 µM (inactive) | > 100 µM (inactive) | > 100 µM (inactive) | > 100 µM (inactive) | > 100 µM (inactive) | > 100 µM (inactive) | > 100 µM (inactive) | > 100 µM (inactive) | > 100 µM (inactive) | 18.2 µM (inactive) | > 100 µM (inactive) | > 100 µM (inactive) | > 100 µM (inactive) | > 100 µM (inactive) | > 100 µM (inactive) | > 100 µM (inactive) | > 100 µM (inactive) | > 100 µM (inactive)
O=C1c2ccccc2C(=O)c2c1ccc1conc21 | 1.36 µM (inactive) | 2.75 | 3.52 µM (inactive) | 3.41 µM (inactive) | 1.48 µM (inactive) | 2.98 µM (inactive) | 0.875 µM (active) | 1.92 µM (inactive) | 1.62 µM (inactive) | 1.85 µM (inactive) | 0.632 µM (active) | 2.65 µM (inactive) | 0.221 µM (active) | 5.48 µM (inactive) | 1.7 µM (inactive) | 0.605 µM (active) | 2.48 µM (inactive) | 1.66 µM (inactive) | 1.52 µM (inactive) | 4.37 µM (inactive)
CCC1(CCSC(=N)N)C(=O)NC(=O)NC1=O | > 100 µM (inactive) | > 100 | > 100 µM (inactive) | > 100 µM (inactive) | > 100 µM (inactive) | > 100 µM (inactive) | > 100 µM (inactive) | > 100 µM (inactive) | > 100 µM (inactive) | > 100 µM (inactive) | > 100 µM (inactive) | > 100 µM (inactive) | > 100 µM (inactive) | > 100 µM (inactive) | > 100 µM (inactive) | > 100 µM (inactive) | > 100 µM (inactive) | > 100 µM (inactive) | > 100 µM (inactive) | > 100 µM (inactive)
CC(=O)O[C@H]1CC[C@@]2(C)C(=CC[C@H]3[C@@H]4C[C@H](N5CCN(C)CC5)[C@H](OC(C)=O)[C@@]4(C)CC[C@@H]32)C1 | 22.9 µM (inactive) | 13 | 18 µM (inactive) | 12.5 µM (inactive) | 16.8 µM (inactive) | 19 µM (inactive) | 4.39 µM (inactive) | 3.53 µM (inactive) | 19.7 µM (inactive) | 1.91 µM (inactive) | 4.39 µM (inactive) | 22.1 µM (inactive) | 16.7 µM (inactive) | 21.9 µM (inactive) | 18.8 µM (inactive) | 5.08 µM (inactive) | 11.7 µM (inactive) | 15.6 µM (inactive) | 12.9 µM (inactive) | 3.6 µM (inactive)
COc1c(C(C)(C)C)cc(CC2C(=O)C=CC2=O)cc1C(C)(C)C | 22.4 µM (inactive) | 14.1 | 19 µM (inactive) | 16.6 µM (inactive) | 15.8 µM (inactive) | 14.2 µM (inactive) | 2.95 µM (inactive) | 17.3 µM (inactive) | 18.2 µM (inactive) | 4.93 µM (inactive) | 2.93 µM (inactive) | 20.2 µM (inactive) | 18.2 µM (inactive) | 19.1 µM (inactive) | 2.25 µM (inactive) | 15.3 µM (inactive) | 17.2 µM (inactive) | 9.68 µM (inactive) | 3.13 µM (inactive) | 15.5 µM (inactive)
C=C1CC2C[C@H](OS(=O)(=O)c3ccc(C)cc3)C(C1)N2C (stereo not given in full) | > 100 µM (inactive) | > 100 | > 100 µM (inactive) | > 100 µM (inactive) | > 100 µM (inactive) | > 100 µM (inactive) | > 100 µM (inactive) | > 100 µM (inactive) | > 100 µM (inactive) | > 100 µM (inactive) | > 100 µM (inactive) | > 100 µM (inactive) | > 100 µM (inactive) | > 100 µM (inactive) | > 100 µM (inactive) | > 100 µM (inactive) | > 100 µM (inactive) | > 100 µM (inactive) | > 100 µM (inactive) | > 100 µM (inactive)
CCCCCOC(=O)C(=O)Nc1[nH]nnc1C(N)=O | > 100 µM (inactive) | > 100 | > 100 µM (inactive) | > 100 µM (inactive) | > 100 µM (inactive) | > 100 µM (inactive) | > 100 µM (inactive) | > 100 µM (inactive) | > 100 µM (inactive) | > 100 µM (inactive) | > 100 µM (inactive) | > 100 µM (inactive) | > 100 µM (inactive) | > 100 µM (inactive) | > 100 µM (inactive) | > 100 µM (inactive) | > 100 µM (inactive) | > 100 µM (inactive) | > 100 µM (inactive) | > 100 µM (inactive)
